This passage reports IC50 results from patent publication US11739093B2, “Substituted pyrazolopyrazines, imidazopyrazines and [1,2,4]triazolopyrazines as allosteric SHP2 inhibitors” (Revolution Medicines, Inc., priority 2017, dated 2023).

SHP2, sequence (Q06124 whole entry): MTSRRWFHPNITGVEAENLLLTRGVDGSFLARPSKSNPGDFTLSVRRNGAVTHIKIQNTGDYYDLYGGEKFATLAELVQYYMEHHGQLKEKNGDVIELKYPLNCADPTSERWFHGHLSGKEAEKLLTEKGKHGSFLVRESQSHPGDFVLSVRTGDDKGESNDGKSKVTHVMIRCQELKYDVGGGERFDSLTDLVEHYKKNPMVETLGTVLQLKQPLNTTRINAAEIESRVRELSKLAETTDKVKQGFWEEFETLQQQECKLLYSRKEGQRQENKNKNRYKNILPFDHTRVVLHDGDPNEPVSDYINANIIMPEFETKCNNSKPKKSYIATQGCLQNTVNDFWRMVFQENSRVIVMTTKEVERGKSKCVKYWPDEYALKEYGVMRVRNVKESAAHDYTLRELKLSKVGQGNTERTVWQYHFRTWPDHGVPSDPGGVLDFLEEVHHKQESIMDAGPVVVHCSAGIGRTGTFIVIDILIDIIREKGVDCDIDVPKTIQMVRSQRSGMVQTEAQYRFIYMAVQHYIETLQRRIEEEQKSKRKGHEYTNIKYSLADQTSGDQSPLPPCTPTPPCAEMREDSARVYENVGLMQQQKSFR

This assay has as its target SHP2 (Homo sapiens (Human), UniProt Q06124). The experiment in a line: SHP2 Allosteric Inhibition Assay. The format is biochemical. The note with it: 0.2 nM SHP2 with 0.5 μM Activating Peptide 1 or 2; surrogate substrate DiFMUP; prompt fluorescence, kinetic read. An excerpt:
Without wishing to be bound by theory, SHP is allosterically activated through binding of bis-tyrosyl-phosphorylated peptides to its Src Homology 2 (SH2) domains. The latter activation step leads to the release of the auto-inhibitory interface of SHP2, which in turn renders the SHP2 protein tyrosine phosphatase (PTP) active and available for substrate recognition and reaction catalysis. The catalytic activity of SHP2 was monitored using the surrogate substrate DiFMUP in a prompt fluorescence assay format.
The phosphatase reactions were performed at room temperature in 96-well black polystyrene plate, flat bottom, non-binding surface (Corning, Cat #3650) using a final reaction volume of 100 μL and the following assay buffer conditions: 50 mM HEPES, pH 7.2, 100 mM NaCl, 0.5 mM EDTA, 0.05% P-20, 1 mM DTT.
The inhibition of SHP2 by compounds of the disclosure (concentrations varying from 0.00005-10 μM) was monitored using an assay in which 0.2 nM of SHP2 was incubated with 0.5 μM of Activating Peptide 1 (sequence: H2N-LN(pY)IDLDLV(dPEG8)LST(pY)ASINFQK-amide) or Activating Peptide 2 (sequence: H2N-LN(pY)AQLWHA(dPEG8)LTI(pY)ATIRRF-amide). After 30-60- minutes incubation at 25° C., the surrogate substrate DiFMUP (Invitrogen, Cat #D6567) was added to the reaction and activity was determined by a kinetic read using a microplate reader (Envision, Perkin-Elmer or Spectramax M5, Molecular Devices). The excitation and emission wavelengths were 340 nm and 450 nm, respectively. Initial rates were determined from a linear fit of the data, and the inhibitor dose response curves were analyzed using normalized IC50 regression curve fitting with control based normalization.
Regarding `CC1(N)CCN(c2ncc(Sc3ccnc(N)c3Cl)c3nsnc23)CC1` [Compound 15, 4-((4-(4-amino-4-methylpiperidin-1-yl)-[1,2,5]thiadiazolo[3,4-c]pyridin-7-yl)thio)-3-chloropyridin-2-amine], the concentration for half-maximal inhibition (IC50) was 340 nM.

Compound `C[C@@H]1OCC2(CCN(c3ncc(Sc4ccnc(N)c4Cl)c4ncncc34)CC2)[C@@H]1N` [Compound 16, (3S,4S)-8-{8-[(2-amino-3-chloropyridin-4-yl)sulfanyl]pyrido[4,3-d]pyrimidin-5-yl}-3-methyl-2-oxa-8-azaspiro[4.5]decan-4-amine] yielded an IC50 of 83 nM.

In turn, `Cc1nc(N2CCC(C)(N)CC2)c2cncn2c1-c1cccc(Cl)c1Cl` [Compound 2, 1-(5-(2,3-dichlorophenyl)-6-methylimidazo[1,5-a]pyrazin-8-yl)-4-methylpiperidin-4-amine] had an IC50 of 190 nM.

Turning to `Cc1nc(N2CCC3(CC2)CO[C@@H](C)[C@H]3N)c2nccn2c1Sc1ccnc(N)c1Cl` [Compound 6, (3S,4S)-8-{5-[(2-amino-3-chloropyridin-4-yl)sulfanyl]-6-methylimidazo[1,2-a]pyrazin-8-yl}-3-methyl-2-oxa-8-azaspiro[4.5]decan-4-amine], the IC50 worked out at 1100 nM.

By IC50 is commonly meant the concentration that inhibits the measured activity by half. Low readings indicate greater potency, high ones weaker potency.
